According to ChEMBL document CHEMBL1201862, “PubChem BioAssay data set” (2004):
Where a name gives a salt, the structure may show the parent alone. Values belong to the compound of their own block, whether it stands above or below them. The source made the active and inactive calls.

How the values were obtained:
[1] = target: Cytochrome P450 3A4 (Homo sapiens, UniProt P08684);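 also: CYP3A4 tested as one member of a cytochrome P450 panel screen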
[2] = target: Cytochrome P450 2C19 (Homo sapiens, UniProt P33261); experiment: Cytochrome panel assay with activity outcomes. Panel member name: p450-cyp2c19 Compounds with AC50 equal or less than 10 uM are considered active; format: functional
[3] = target: T1, Heat shock factor protein 1 (Mus musculus, UniProt P38532); experiment: decrease of HSF1-responsive luciferase luminescence – cell-based, NIH3T3, dose retest, confirmation (AID 2382); format: functional;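 also: NIH3T3 fibroblasts with HSF1-driven luciferase reporter stressed by proteasome inhibitor MG132; luminescence from HSF1-driven luciferase expression after 8 hours of MG132 stress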
T1 sequence (P38532 whole entry): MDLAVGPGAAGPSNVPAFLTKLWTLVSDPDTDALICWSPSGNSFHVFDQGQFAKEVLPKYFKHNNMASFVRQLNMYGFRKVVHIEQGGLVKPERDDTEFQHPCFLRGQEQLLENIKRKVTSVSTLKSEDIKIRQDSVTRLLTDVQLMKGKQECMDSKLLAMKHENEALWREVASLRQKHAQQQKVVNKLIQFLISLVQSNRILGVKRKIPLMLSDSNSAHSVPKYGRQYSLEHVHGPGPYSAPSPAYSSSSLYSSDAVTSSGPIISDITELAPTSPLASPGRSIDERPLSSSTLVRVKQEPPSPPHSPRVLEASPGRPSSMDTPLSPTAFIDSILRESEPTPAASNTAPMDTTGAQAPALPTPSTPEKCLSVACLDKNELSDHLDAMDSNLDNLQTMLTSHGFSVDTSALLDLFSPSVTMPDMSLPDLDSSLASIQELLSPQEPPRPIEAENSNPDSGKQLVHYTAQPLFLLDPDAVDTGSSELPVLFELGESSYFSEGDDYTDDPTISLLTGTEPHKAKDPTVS

[4] = target: T2, Cytochrome P450 1A2 (Homo sapiens, UniProt P05177);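 also: PubChem cytochrome P450 panel assay, CYP1A2 panel member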
T2 sequence (P05177 whole entry): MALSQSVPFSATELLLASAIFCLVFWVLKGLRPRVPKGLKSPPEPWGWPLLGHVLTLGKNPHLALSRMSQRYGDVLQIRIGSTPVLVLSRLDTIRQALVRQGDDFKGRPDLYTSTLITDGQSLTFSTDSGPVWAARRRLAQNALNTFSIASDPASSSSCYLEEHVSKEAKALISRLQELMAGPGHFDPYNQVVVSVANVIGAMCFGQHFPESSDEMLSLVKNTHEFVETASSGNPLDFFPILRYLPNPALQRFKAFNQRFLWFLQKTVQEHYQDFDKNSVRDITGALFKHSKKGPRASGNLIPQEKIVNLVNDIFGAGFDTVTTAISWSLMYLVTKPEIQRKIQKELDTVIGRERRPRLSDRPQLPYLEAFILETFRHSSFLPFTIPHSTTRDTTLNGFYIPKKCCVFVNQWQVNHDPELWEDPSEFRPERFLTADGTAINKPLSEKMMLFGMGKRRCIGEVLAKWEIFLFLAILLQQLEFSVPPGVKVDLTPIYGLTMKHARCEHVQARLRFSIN

[5] = target: T3, Rac GTPase-activating protein 1 (Homo sapiens, UniProt Q9H0H5); experiment: blockers of MgcRacGAP-driven Rac1 GTP hydrolysis – biochemical, ADP Hunter fluorescence, primary and confirmatory, confirmation (AID 624330); format: functional
T3 sequence (Q9H0H5 whole entry): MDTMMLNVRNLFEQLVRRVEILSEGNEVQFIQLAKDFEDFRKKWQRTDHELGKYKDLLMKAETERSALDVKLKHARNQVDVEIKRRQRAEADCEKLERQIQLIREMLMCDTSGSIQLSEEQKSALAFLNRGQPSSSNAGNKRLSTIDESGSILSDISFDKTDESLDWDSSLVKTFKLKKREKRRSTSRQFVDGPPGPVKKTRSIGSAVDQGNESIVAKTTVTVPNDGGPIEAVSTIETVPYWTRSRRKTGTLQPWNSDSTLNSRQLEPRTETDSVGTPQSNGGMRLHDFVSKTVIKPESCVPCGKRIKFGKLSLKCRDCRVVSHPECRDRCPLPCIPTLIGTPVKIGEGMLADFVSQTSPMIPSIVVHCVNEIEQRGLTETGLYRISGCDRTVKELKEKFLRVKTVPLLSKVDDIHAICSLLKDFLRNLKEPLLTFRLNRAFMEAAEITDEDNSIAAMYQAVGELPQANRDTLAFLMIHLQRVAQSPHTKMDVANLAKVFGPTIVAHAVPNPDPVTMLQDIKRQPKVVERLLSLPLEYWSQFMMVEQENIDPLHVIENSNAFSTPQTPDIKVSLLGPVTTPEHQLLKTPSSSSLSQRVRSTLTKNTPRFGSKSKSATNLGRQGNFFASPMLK

[6] = Luminescence Cell-Based Dose Retest to Confirm Inhibitors of Cancer Stem Cells. [Related pubchem assays (depositor defined):AID2717, AID2721]; format: functional; settings: Homo sapiens
[7] = target: Cytochrome P450 2C9 (Homo sapiens, UniProt P11712)
[8] = NIH-3T3 fibroblast cytotoxicity, dose response, cytotoxicity control, cell-based, fluorescence, Alamar Blue, secondary assay (AID 2327); format: functional;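 also: NIH-3T3 mouse fibroblasts cultured with fluconazole at 8 µg/mL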
[9] = fluconazole-exposed Candida albicans growth modulators – fluorescence, retest, confirmation (AID 2467); format: functional, cell-based

Chain of Cytochrome P450 2C9 (P11712 whole entry): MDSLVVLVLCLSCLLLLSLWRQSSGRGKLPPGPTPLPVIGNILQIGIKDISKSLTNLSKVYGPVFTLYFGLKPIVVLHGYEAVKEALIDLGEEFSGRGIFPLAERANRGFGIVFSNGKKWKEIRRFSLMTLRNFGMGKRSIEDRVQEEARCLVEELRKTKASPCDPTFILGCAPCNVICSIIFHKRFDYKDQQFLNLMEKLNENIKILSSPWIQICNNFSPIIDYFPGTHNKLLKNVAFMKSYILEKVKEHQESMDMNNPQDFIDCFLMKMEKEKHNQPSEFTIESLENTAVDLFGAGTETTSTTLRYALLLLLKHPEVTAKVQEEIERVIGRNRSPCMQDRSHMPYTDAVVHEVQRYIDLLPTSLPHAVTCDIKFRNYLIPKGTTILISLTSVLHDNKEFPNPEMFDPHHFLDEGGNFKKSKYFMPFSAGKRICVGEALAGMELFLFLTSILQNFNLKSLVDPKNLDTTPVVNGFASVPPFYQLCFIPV
Chain of Cytochrome P450 3A4 (P08684 whole entry): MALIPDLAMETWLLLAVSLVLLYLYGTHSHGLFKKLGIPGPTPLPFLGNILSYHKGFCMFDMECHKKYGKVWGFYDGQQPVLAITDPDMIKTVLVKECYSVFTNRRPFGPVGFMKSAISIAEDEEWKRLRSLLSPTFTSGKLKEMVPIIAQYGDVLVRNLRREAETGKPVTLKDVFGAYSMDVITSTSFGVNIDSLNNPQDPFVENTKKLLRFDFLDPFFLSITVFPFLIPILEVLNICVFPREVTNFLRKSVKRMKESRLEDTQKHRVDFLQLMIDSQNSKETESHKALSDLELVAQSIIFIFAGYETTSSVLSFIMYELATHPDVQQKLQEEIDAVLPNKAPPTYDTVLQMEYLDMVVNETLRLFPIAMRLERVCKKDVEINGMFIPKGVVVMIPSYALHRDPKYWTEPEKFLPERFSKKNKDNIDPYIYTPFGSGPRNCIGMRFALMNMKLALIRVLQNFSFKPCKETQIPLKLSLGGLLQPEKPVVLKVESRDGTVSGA
Chain of Cytochrome P450 2C19 (P33261 whole entry): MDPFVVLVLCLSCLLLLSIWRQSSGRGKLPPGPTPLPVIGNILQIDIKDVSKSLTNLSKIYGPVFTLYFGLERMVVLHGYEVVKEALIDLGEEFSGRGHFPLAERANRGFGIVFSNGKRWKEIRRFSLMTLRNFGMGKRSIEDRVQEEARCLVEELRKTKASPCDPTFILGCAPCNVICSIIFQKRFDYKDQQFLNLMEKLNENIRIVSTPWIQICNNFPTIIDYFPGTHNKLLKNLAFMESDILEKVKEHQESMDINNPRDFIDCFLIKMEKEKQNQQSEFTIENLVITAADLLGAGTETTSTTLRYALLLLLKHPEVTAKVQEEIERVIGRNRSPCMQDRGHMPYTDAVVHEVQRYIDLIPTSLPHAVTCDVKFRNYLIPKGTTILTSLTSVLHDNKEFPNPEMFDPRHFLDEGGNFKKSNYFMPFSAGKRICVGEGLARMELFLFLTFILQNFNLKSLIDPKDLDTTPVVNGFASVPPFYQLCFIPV

SMILES: CC(=O)Nc1cc(C(F)(F)F)ccc1Oc1cccc(Br)c1
- AC50 [1]: 12.6 µM (inconclusive)
- AC50 ([2]; read-out: AC50): 0.316 µM (inconclusive)

SMILES: CN(CCC(=O)O)S(=O)(=O)c1ccccc1
- AC50 [4]: 3.16 µM (inconclusive)

SMILES: Nc1c(C(O)(C(F)(F)F)C(F)(F)F)cc(C(O)(C(F)(F)F)C(F)(F)F)c2ccccc12
- AC50 [6]: 2.46 µM (active)

SMILES: OC(CN1CCN(c2ccccn2)CC1)Cn1c2ccc(Cl)cc2c2cc(Cl)ccc21 (stereo unspecified)
- AC50 [6]: 3.21 µM (active)

SMILES: COc1ccc(Oc2ncc3ncc(=O)n(C4CC4)c3n2)cc1
- AC50 [1]: 25.1 µM (inconclusive)
- AC50 ([2]; read-out: AC50): 0.316 µM (inconclusive)
- AC50 [7]: 25.1 µM (inconclusive)

SMILES: CCNc1ncc2nc(CCc3ccccc3)c(=O)n(Cc3ccc(F)cc3)c2n1
- AC50 [4]: 3.16 µM (inconclusive)

SMILES: Oc1cc(C(F)(F)F)nc2c(OC(F)(F)F)cccc12
- AC50 [6]: 22.4 µM (active)

SMILES: CC(=O)Nc1ccc(OCC(O)CN2CCN(c3ccc(C)c(Cl)c3)CC2)cc1 (stereo unspecified)
- AC50 [6]: 7.01 µM (active)

SMILES: O=C(Nc1ccccc1)OCN1C(=O)c2ccccc2C1=O
- EC50 [8]: > 150 µM (inactive)
- EC50 [9]: > 38 µM (not active)

SMILES: CCOC(=O)c1c(O)nc(O)c(CC)c1C
- AC50 ([2]; read-out: AC50): 2.51 µM (inconclusive)

SMILES: CC(C)c1ccc(NC(=O)Nc2cc3sccc3n2C)cc1
- EC50 [3]: > 195 µM (not active)

SMILES: COCCn1c(=S)[nH]c2cc(C(=O)NC(C)C)ccc2c1=O
- AC50 [4]: 3.16 µM (inconclusive)

SMILES: CC(C)c1nc2sc3ccccc3c(=O)c2c(=O)n1Cc1ccccc1
- AC50 [6]: 0.796 µM (active)

SMILES: Cc1cc(C)c(C#N)c(SCC(=O)NC(C)(C)C)n1
- EC50 [3]: > 195 µM (not active)

SMILES: O=c1[nH]c2ccccc2n2c(S)nnc12
- IC50 [5]: 109 µM (active)

SMILES: COC(=O)C(C)(C(=O)OC)c1ccc([N+](=O)[O-])cn1
- AC50 ([2]; read-out: AC50): 39.8 µM (inconclusive)

SMILES: COCC(=O)N1CCC2(CC1)CN(Cc1cc(C(F)(F)F)cc(C(F)(F)F)c1)C2
- AC50 [4]: 25.1 µM (inconclusive)
- AC50 ([2]; read-out: AC50): 20 µM (inconclusive)
- AC50 [7]: 12.6 µM (inconclusive)

SMILES: CCN(CC)c1ccc(NC(=O)COC(=O)Cc2ccsc2)cc1
- IC50 [5]: 38 µM (active)

SMILES: CSc1ccc(/C=C/C(=O)Nc2ccccc2)cc1
- EC50 [8]: > 150 µM (inactive)
- EC50 [9]: > 38 µM (not active)

SMILES: CC(C)CC(=O)Nc1sc2c(c1C#N)CC(C)(C)NC2(C)C
- AC50 [1]: 14.1 µM (inconclusive)
- AC50 ([2]; read-out: AC50): 28.2 µM (inconclusive)

SMILES: Cn1c(=O)[nH]c(N)c(Br)c1=O
- IC50 [5]: 84.3 µM (active)

SMILES: O=C1CSC(=S)N1Nc1ccccc1
- IC50 [5]: 54 µM (active)

SMILES: CCOC(=O)C(CC)/C(C)=N\NC(=O)c1ccccc1O (stereo unspecified)
- EC50 [8]: > 160 µM (inactive)
- EC50 [9]: > 38 µM (not active)

SMILES: CCNc1nc(NCC)nc(N/N=C/c2ccc(O)c(O)c2)n1
- IC50 [5]: 45.5 µM (active)

SMILES: O=C(N/N=C/c1ccc(Cl)c([N+](=O)[O-])c1)c1cc(-c2ccccc2)nc2ccccc12
- AC50 [6]: 2.08 µM (active)

SMILES: CC(C)CC(=O)c1c(O)c(C=O)c(O)c2c1O[C@@]1(C)[C@@H](C2)C[C@H]2C[C@@H]1C2(C)C [EUGLOBAL G1]
- AC50 [6]: 2.68 µM (active)

SMILES: COCCCC/C(=N\OCCN)c1ccc(C(F)(F)F)cc1 [FLUVOXAMINE MALEATE]
- EC50 [3]: > 195 µM (not active)

SMILES: Cc1nc2c([nH]1)c(=O)n(C)c(=O)n2Cc1ccco1 [FURAFYLLINE]
- AC50 [2]: inconclusive

SMILES: CN[C@H](CC(=O)O)C(=O)O [N-METHYL-D-ASPARTIC ACID (NMDA)]
- AC50 [4]: 39.8 µM (inconclusive)

SMILES: CCCCCCCCCCCCCCCC[N+](C)(C)CCN(Cc1ccc(OC)cc1)c1ncccn1 [THONZONIUM]
- AC50 [4]: 20 µM (inconclusive)
- AC50 [7]: 15.8 µM (inconclusive)

Other lines, results leading:

- EC50 [3]: 11 µM (active)
SMILES: CCN1CCN(c2cc(C)c3cc(NC(=S)N4CCCC(C)C4)ccc3n2)CC1 (stereo unspecified)

- IC50 [5]: 109 µM (active)
SMILES: COc1ccc(NC2CCCN(C(=O)c3ccc(CSC)o3)C2)cc1OC (stereo unspecified)

- EC50 [3]: 2.54 µM (active)
SMILES: O=C(O)c1cc(S(=O)(=O)Nc2ccc3c(c2)OCCO3)c(Cl)cc1Cl

- EC50 [3]: > 195 µM (not active)
SMILES: Cc1noc(NS(=O)(=O)c2ccc(N3Cc4ccccc4C3=O)cc2)c1C

- AC50 [4]: 12.6 µM (inconclusive)
- AC50 ([2]; read-out: AC50): 39.8 µM (inconclusive)
- AC50 [7]: 25.1 µM (inconclusive)
SMILES: COC(=O)N1CCC[C@@]2(CCN(C(c3ccccc3)c3ccccc3)C2)C1

- EC50 [3]: > 195 µM (not active)
SMILES: COc1ccccc1N(C)S(=O)(=O)c1ccc(C(=O)NC(C)c2ccccc2)cc1 (stereo unspecified)

- IC50 [5]: 32.6 µM (active)
SMILES: N#Cc1ccccc1S(=O)(=O)N1CCN(C(=O)Cc2coc3cc(O)ccc23)CC1

- EC50 [3]: 24.1 µM (active)
SMILES: O=C(CC1C(=O)NCCN1Cc1ccccc1F)NC1CCCCCC1 (stereo unspecified)

- EC50 [3]: > 195 µM (not active)
SMILES: Cc1ccc2nc(O)c(CN(C(=O)c3cccc([N+](=O)[O-])c3)C(C)C)cc2c1

- EC50 [3]: > 195 µM (not active)
SMILES: COc1cccc2c(=O)n(CC(=O)NCCc3ccccc3)ccc12

- AC50 [1]: 25.1 µM (inconclusive)
- AC50 ([2]; read-out: AC50): 28.2 µM (inconclusive)
- AC50 [7]: 17.8 µM (inconclusive)
SMILES: O=C(c1ccco1)N1CCN(C(=O)C2(S(=O)(=O)c3ccc(Cl)cc3)CC2)CC1

- AC50 [4]: 17.8 µM (inconclusive)
SMILES: Cc1ccc(C(=O)C(OC(=O)CCC(=O)Nc2cccc(C)c2)c2ccccc2)cc1 (stereo unspecified)

- EC50 [3]: > 195 µM (not active)
SMILES: O=C(O)Cn1c(=O)c2c3c(sc2n(Cc2ccc(Cl)cc2Cl)c1=O)CCCC3

- AC50 [4]: 10 µM (inconclusive)
SMILES: COc1ccccc1CNCC(O)(c1ccc(Cl)cc1)c1ccc(Cl)cc1

- EC50 [3]: > 195 µM (not active)
SMILES: Cc1cc(S(=O)(=O)N2CCCC2)ccc1OCC(=O)NCc1ccccc1

- IC50 [5]: 94.7 µM (active)
SMILES: CN(C)CCCNCC(=O)c1c(-c2ccccc2)n(C)c2ccccc12

- AC50 [4]: 2.51 µM (inconclusive)
SMILES: Cc1cc2ccc(OC(=O)c3ccc(NC(=N)N)cc3)cc2oc1=O

- AC50 [4]: 25.1 µM (inconclusive)
SMILES: O=C(CCS(=O)(=O)c1cccc2nsnc12)NC1CCCCC1

- EC50 [3]: > 195 µM (not active)
SMILES: CCCCSC1=C(C#N)C(c2ccccc2C)CC(=O)N1 (stereo unspecified)

- AC50 [4]: 15.8 µM (inconclusive)
SMILES: CCOc1ccccc1NC(=O)C(=O)NCC1CCCN1CC (stereo unspecified)

- AC50 [1]: 25.1 µM (inconclusive)
- AC50 [4]: 14.1 µM (inconclusive)
- AC50 [7]: 31.6 µM (inconclusive)
SMILES: O=C(CCCCCN1C(=O)c2ccccc2C1=O)NCc1ccccn1

- AC50 ([2]; read-out: AC50): 39.8 µM (inconclusive)
SMILES: CCNc1ncc2nc(-c3ccccc3)c(=O)n(Cc3cccc(OC)c3)c2n1

- EC50 [3]: > 195 µM (not active)
SMILES: CC(C)CNS(=O)(=O)c1ccc(CCC(=O)N2CCOCC2)cc1

- EC50 [3]: > 195 µM (not active)
SMILES: COC(=O)c1ccc2c(=O)n(-c3ccccc3)c(=S)[nH]c2c1

- AC50 [1]: 22.4 µM (inconclusive)
- AC50 [2]: inconclusive
- AC50 [7]: 1.78 µM (inconclusive)
SMILES: CCOc1cc(/C=N/NC(=O)c2cc(C)[nH]n2)ccc1OC(=O)c1ccc([N+](=O)[O-])cc1

- AC50 [1]: 1.26 µM (inconclusive)
- AC50 [4]: 39.8 µM (inconclusive)
- AC50 ([2]; read-out: AC50): 31.6 µM (inconclusive)
SMILES: CN(C)CCCc1cc(C(=O)Nc2ccc(-c3ccncc3)cc2)ccc1O [GR-55562]
